Experimental data: US12428423B2, “1H-imidazo[4,5-h]quinazoline compound as protein kinase inhibitor” (SHENGKE PHARMACEUTICALS (JIANGSU) LTD., priority 2017, dated 2025)

Legend:
CDK4/cyclin D1 = CDK4/cyclin D1 (Homo sapiens (Human), UniProt P11802); experiment: Biochemical kinase inhibitory assay, CDK4/cyclin D1; conditions: recombinant CDK4/cyclin D1; in the presence of 10 μM ATP
Protocol: Potency determination in the biochemical kinase inhibitory assay. Kinase activity assay and IC50 determination. […] The kinase reaction was initiated by the addition of 1 μg (1.5 μM) of recombinant retinoblastoma protein, 5 μM ATP and 10μ Ci γ-32P-ATP. The reaction was incubated at 30° C. for 20 minutes, and the reaction was stopped by the addition of 2× Laemmli sample buffer, heated at 95° C. for three minutes, and dissolved in 12% acrylamide SDS-PAGE for autoradiography. The corresponding phosphorylated substrate protein bands were quantified using a densitometer (Bio-Rad). […] The reaction took place in the presence of 10 μM ATP.

CDK6/cyclin D1 = CDK6/cyclin D1 (Homo sapiens (Human), UniProt Q00534); experiment: Biochemical kinase inhibitory assay, CDK6/cyclin D1; conditions: in the presence of 10 μM ATP
CDK6/cyclin D1, sequence (Q00534 whole entry): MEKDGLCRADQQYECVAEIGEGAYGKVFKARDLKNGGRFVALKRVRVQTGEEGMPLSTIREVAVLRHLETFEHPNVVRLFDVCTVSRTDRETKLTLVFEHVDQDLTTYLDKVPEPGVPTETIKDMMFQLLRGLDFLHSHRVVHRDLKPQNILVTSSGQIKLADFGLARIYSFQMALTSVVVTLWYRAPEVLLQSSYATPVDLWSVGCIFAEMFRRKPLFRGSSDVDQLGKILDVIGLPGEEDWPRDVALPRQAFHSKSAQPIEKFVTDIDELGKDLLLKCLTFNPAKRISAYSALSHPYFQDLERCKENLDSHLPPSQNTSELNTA
CDK6/cyclin D1, sequence (P24385 whole entry partner): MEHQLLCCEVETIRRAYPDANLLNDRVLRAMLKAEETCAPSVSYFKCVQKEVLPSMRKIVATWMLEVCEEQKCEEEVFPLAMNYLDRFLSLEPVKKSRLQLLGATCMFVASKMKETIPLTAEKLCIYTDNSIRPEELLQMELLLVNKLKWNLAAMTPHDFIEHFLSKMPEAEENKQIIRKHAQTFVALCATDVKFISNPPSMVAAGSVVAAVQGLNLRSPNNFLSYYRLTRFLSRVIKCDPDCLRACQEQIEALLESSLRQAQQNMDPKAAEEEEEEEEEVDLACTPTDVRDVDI
Protocol: Potency determination in the biochemical kinase inhibitory assay. Kinase activity assay and IC50 determination. […] The kinase reaction was initiated by the addition of 1 μg (1.5 μM) of recombinant retinoblastoma protein, 5 μM ATP and 10μ Ci γ-32P-ATP. The reaction was incubated at 30° C. for 20 minutes, and the reaction was stopped by the addition of 2× Laemmli sample buffer, heated at 95° C. for three minutes, and dissolved in 12% acrylamide SDS-PAGE for autoradiography. The corresponding phosphorylated substrate protein bands were quantified using a densitometer (Bio-Rad). […] The compounds disclosed herein were tested in a similar manner for their inhibitory activities against CDK6/cyclin D1, CDK2/cyclin A, CDK5/cyclin P25, CDK9/cyclin Ti, CDK7/cyclin H and CDK19/cyclin C. […] The reaction took place in the presence of 10 μM ATP.

CDK4/cyclin D1, sequence (P11802 whole entry): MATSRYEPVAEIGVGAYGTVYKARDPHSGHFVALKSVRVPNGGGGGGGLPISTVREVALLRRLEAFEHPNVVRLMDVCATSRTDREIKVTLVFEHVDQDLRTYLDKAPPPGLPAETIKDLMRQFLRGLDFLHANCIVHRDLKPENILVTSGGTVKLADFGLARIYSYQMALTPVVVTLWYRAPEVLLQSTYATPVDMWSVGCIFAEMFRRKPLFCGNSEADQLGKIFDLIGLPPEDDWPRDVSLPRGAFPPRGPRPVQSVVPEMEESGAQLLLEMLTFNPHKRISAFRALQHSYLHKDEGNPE
CDK4/cyclin D1, sequence (P24385 whole entry partner): as the sequence (P24385 whole entry partner) above

Structure (SMILES) | IC50 (CDK4/cyclin D1) | IC50 (CDK6/cyclin D1)
c1cc(Nc2ncc3ccc4ncn(C5CCC5)c4c3n2)ncc1N1CCNCC1 [Compound I-52] | 10 to 50 nM | 10 to 50 nM
Cc1cc(Nc2ncc3c(C)cc4ncn(C(C)C)c4c3n2)ncc1N1CCNCC1 [Compound I-63] | 50 to 100 nM | 50 to 100 nM
CC(C)n1cnc2c(Br)cc3cnc(Nc4ccc(N5CCC6(CC5)CNC6)cn4)nc3c21 [Compound I-71] | 10 to 50 nM | 10 to 50 nM
Cc1cc(Nc2ncc3ccc4ncn(C5CCCC5)c4c3n2)ncc1N1CCNCC1 [Compound I-58] | 2 to 10 nM | 2 to 10 nM
Cc1cc2cnc(Nc3ccc(N4CCNCC4)cn3)nc2c2c1ncn2C(C)C [Compound I-72] | 2 to 10 nM | 2 to 10 nM
CC(C)n1cnc2ccc3cnc(Nc4ccc(N5CC6(CCNCC6)C5)cn4)nc3c21 [Compound I-32] | 10 to 50 nM | 10 to 50 nM
c1cc(Nc2ncc3ccc4ncn(C5CCC5)c4c3n2)ncc1N1CCOCC1 [Compound I-55] | 10 to 50 nM | 10 to 50 nM
Cc1cc(Nc2ncc3ccc4ncn(C(C)C)c4c3n2)ncc1N1CCN(C)CC1 [Compound I-3] | 2 to 10 nM | 2 to 10 nM
Cc1cc(Nc2ncc3ccc4ncn(C(C)C)c4c3n2)ncc1N1CCNCC1 [Compound I-8] | < 2 nM | < 2 nM
CC(C)n1cnc2ccc3cnc(Nc4ccc(N5CCC(O)CC5)cn4)nc3c21 [Compound I-17] | 10 to 50 nM | 10 to 50 nM
CC(C)n1cnc2ccc3cnc(Nc4ccc(N5CCNC(C)(C)C5)cn4)nc3c21 [Compound I-11] | 2 to 10 nM | 2 to 10 nM
Cc1nc(Nc2ncc3ccc4ncn(C(C)C)c4c3n2)ccc1N1CCN(C)CC1 [Compound I-4] | 2 to 10 nM | 2 to 10 nM
Cc1nc(Nc2ncc3ccc4ncn(C(C)C)c4c3n2)ccc1N1CCOCC1 [Compound I-25] | 2 to 10 nM | 2 to 10 nM
Cc1nc(Nc2ncc3c(C)cc4ncn(C(C)C)c4c3n2)ccc1N1CCNCC1 [Compound I-64] | 50 to 100 nM | 50 to 100 nM
CC(C)n1cnc2ccc3cnc(Nc4ccc(N5CCCNCC5)cn4)nc3c21 [Compound I-14] | 10 to 50 nM | 10 to 50 nM
CC(C)n1cnc2ccc3cnc(Nc4ccc(N5CCOCC5)cn4)nc3c21 [Compound I-23] | < 2 nM | < 2 nM
CCN1CCN(c2cnc(Nc3ncc4ccc5ncn(C(C)C)c5c4n3)cc2C)CC1 [Compound I-6] | 2 to 10 nM | 2 to 10 nM
CCn1cnc2ccc3cnc(Nc4ccc(N5CCOCC5)cn4)nc3c21 [Compound I-45] | 10 to 50 nM | 10 to 50 nM
CC(C)n1cnc2ccc3cnc(Nc4ccc(N5C[C@@H](C)N[C@@H](C)C5)cn4)nc3c21 [Compound I-12] | 2 to 10 nM | 2 to 10 nM
CC(C)n1cnc2ccc3cnc(Nc4ccc(N5CCNCC5)cc4F)nc3c21 [Compound I-35] | 10 to 50 nM | 10 to 50 nM
CC1CN(c2ccc(Nc3ncc4ccc5ncn(C(C)C)c5c4n3)nc2)CCO1 (centres unmarked) [Compound I-26] | 2 to 10 nM | 2 to 10 nM

Structure (SMILES) | IC50 (CDK4/cyclin D1) | IC50 (CDK6/cyclin D1)
CC(C)n1cnc2ccc3cnc(Nc4ccc(N5CCC(CCCO)CC5)cn4)nc3c21 [Compound I-18] | 10 to 50 nM | 10 to 50 nM
Cc1cc2cnc(Nc3ccc(N4CCOCC4)cn3)nc2c2c1ncn2C(C)C [Compound I-75] | 2 to 10 nM | 2 to 10 nM
COc1cc(OCCN(C)C)ccc1Nc1ncc2ccc3ncn(C(C)C)c3c2n1 [Compound I-36] | 50 to 100 nM | 50 to 100 nM
Cc1cc(Nc2ncc3ccc4ncn(C5CC5)c4c3n2)ncc1N1CCNCC1 [Compound I-48] | 10 to 50 nM | 10 to 50 nM
COc1cc(OC2CCN(C)CC2)ccc1Nc1ncc2ccc3ncn(C(C)C)c3c2n1 [Compound I-37] | 50 to 100 nM | 50 to 100 nM
CCn1cnc2ccc3cnc(Nc4ccc(N5CCN(C)CC5)cn4)nc3c21 [Compound I-43] | 10 to 50 nM | 10 to 50 nM
CC(C)n1cnc2ccc3cnc(Nc4ccc(N5CCC(N)C5)cn4)nc3c21 (centres unmarked) [Compound I-22] | 10 to 50 nM | 10 to 50 nM
CCn1cnc2ccc3cnc(Nc4ccc(N5CCOC(C)C5)cn4)nc3c21 (centres unmarked) [Compound I-46] | 10 to 50 nM | 10 to 50 nM
CC(C)n1cnc2c(Br)cc3cnc(Nc4ccc(N5CCOCC5)cn4)nc3c21 [Compound I-70] | 2 to 10 nM | 2 to 10 nM
Cc1cc(Nc2ncc3ccc4ncn(C(C)C)c4c3n2)ncc1N1CCOCC1 [Compound I-24] | 2 to 10 nM | 2 to 10 nM
Cc1cc(Nc2ncc3cc(C)c4ncn(C(C)C)c4c3n2)ncc1N1CCOCC1 [Compound I-76] | 10 to 50 nM | 10 to 50 nM
CC(C)n1cnc2ccc3cnc(Nc4ccc(N5CC6(CNC6)C5)cn4)nc3c21 [Compound I-30] | 10 to 50 nM | 10 to 50 nM
Cc1nc(Nc2ncc3ccc4ncn(C5CCCC5)c4c3n2)ccc1N1CCNCC1 [Compound I-59] | 2 to 10 nM | 2 to 10 nM
CC(C)N1CCN(c2ccc(Nc3ncc4ccc5ncn(C(C)C)c5c4n3)nn2)CC1 [Compound I-41] | 50 to 100 nM | 50 to 100 nM
CC(C)n1cnc2ccc3cnc(Nc4ccc(N5CCN(CCO)CC5)cn4)nc3c21 [Compound I-15] | 10 to 50 nM | 10 to 50 nM
CC(C)n1cnc2ccc3cnc(Nc4ccc(N5CCC6(CCC(=O)N6)CC5)cn4)nc3c21 [Compound I-33] | 10 to 50 nM | 10 to 50 nM
CC(C)n1cnc2ccc3cnc(Nc4ccc(N5CCC(N)CC5)cn4)nc3c21 [Compound I-21] | 10 to 50 nM | 10 to 50 nM
Cc1cc(Nc2ncc3cc(C)c4ncn(C(C)C)c4c3n2)ncc1N1CCNCC1 [Compound I-73] | 2 to 10 nM | 2 to 10 nM
c1cc(Nc2ncc3ccc4ncn(C5CCCC5)c4c3n2)ncc1N1CCOCC1 [Compound I-60] | 2 to 10 nM | 2 to 10 nM
CCN1CCN(c2ccc(Nc3ncc4ccc5ncn(C(C)C)c5c4n3)nc2C)CC1 [Compound I-7] | 2 to 10 nM | 2 to 10 nM
Cc1cc(Nc2ncc3ccc4ncn(C5CCCC5)c4c3n2)ncc1N1CCOCC1 [Compound I-61] | 2 to 10 nM | 2 to 10 nM

Structure (SMILES) | IC50 (CDK4/cyclin D1) | IC50 (CDK6/cyclin D1)
CCn1cnc2ccc3cnc(Nc4ccc(N5CCNCC5)cn4)nc3c21 [Compound I-42] | 10 to 50 nM | 10 to 50 nM
CC(C)n1cnc2ccc3cnc(Nc4ccc(N5CCN[C@@H](C)C5)cn4)nc3c21 [Compound I-10] | 2 to 10 nM | 2 to 10 nM
c1cc(Nc2ncc3ccc4ncn(C5CC5)c4c3n2)ncc1N1CCNCC1 [Compound I-47] | 2 to 10 nM | 2 to 10 nM
Cc1cc(Nc2ncc3ccc4ncn(C5CCC5)c4c3n2)ncc1N1CCNCC1 [Compound I-53] | 10 to 50 nM | 10 to 50 nM
c1cc(Nc2ncc3ccc4ncn(C5CC5)c4c3n2)ncc1N1CCOCC1 [Compound I-49] | 10 to 50 nM | 10 to 50 nM
CC(C)n1cnc2ccc3cnc(Nc4ccc(N5CCN(C)CC5)cn4)nc3c21 [Compound I-2, 1-isopropyl-N-(5-(4-methylpiperazin-1-yl)pyridin-2-yl)-1H-imidazo[4,5-h]quinazolin-8-amine] | 2 to 10 nM | 2 to 10 nM
CC(C)n1cnc2ccc3cnc(Nc4ccc(N5CCN(CCO)CC5)cc4)nc3c21 [Compound I-34] | 10 to 50 nM | 10 to 50 nM
Cc1nc(Nc2ncc3ccc4ncn(C5CCC5)c4c3n2)ccc1N1CCNCC1 [Compound I-54] | 10 to 50 nM | 10 to 50 nM
Cc1cc2ncn(C(C)C)c2c2nc(Nc3ccc(N4CCNCC4)cn3)ncc12 [Compound I-62] | 50 to 100 nM | 50 to 100 nM
CCn1cnc2ccc3cnc(Nc4ccc(N5C[C@@H](C)O[C@@H](C)C5)cn4)nc3c21 [Compound I-44] | 10 to 50 nM | 10 to 50 nM
Cc1nc(Nc2ncc3ccc4ncn(C5CC5)c4c3n2)ccc1N1CCOCC1 [Compound I-51] | 10 to 50 nM | 10 to 50 nM
CC(C)n1cnc2ccc3cnc(Nc4ccc(N5CCC(CCCO)CC5)cc4)nc3c21 [Compound I-38] | 10 to 50 nM | 10 to 50 nM
Cc1nc(Nc2ncc3cc(Br)c4ncn(C(C)C)c4c3n2)ccc1N1CCNCC1 [Compound I-69] | 2 to 10 nM | 2 to 10 nM
Cc1nc(Nc2ncc3cc(C)c4ncn(C(C)C)c4c3n2)ccc1N1CCNCC1 [Compound I-74] | 2 to 10 nM | 2 to 10 nM
Cc1cc(Nc2ncc3ccc4ncn(C5CC5)c4c3n2)ncc1N1CCOCC1 [Compound I-50] | 10 to 50 nM | 10 to 50 nM
CCN1CCN(c2ccc(Nc3ncc4ccc5ncn(C(C)C)c5c4n3)nc2)CC1 [Compound I-5] | < 2 nM | < 2 nM
CC(C)n1cnc2ccc3cnc(Nc4ccc(N5CCC(N(C)C)CC5)cn4)nc3c21 [Compound I-19] | 10 to 50 nM | 10 to 50 nM
CC(C)n1cnc2ccc3cnc(Nc4ccc(N5CCCCC5)cn4)nc3c21 [Compound I-16] | 10 to 50 nM | 10 to 50 nM
CC(C)n1cnc2ccc3cnc(Nc4cc(F)c(N5CCNCC5)cn4)nc3c21 [Compound I-13] | 10 to 50 nM | 10 to 50 nM
